What is called pIC50 is the negative decadic logarithm of the IC50, by convention in mol/L.

The source of these data is patent publication US20160083391A1, “TRICYCLIC PIPERAZINE DERIVATIVE” (Sunovion Pharmaceuticals Inc., priority 2014, published 2016).

pIC50: −log10 of the molar value.

In the assay the test system is PDE1. In words: In vitro HTRF PDE1 inhibition assay. In kind it is biochemical. The conditions noted are these: HTRF cGMP assay, 100 nM cyclic GMP, PDE (1A3, 1B or 1C) with calmodulin, 45 minutes at 37° C.; isoform of the tabulated values not stated. From the text:
An exemplary procedure for the in vitro Homogenous Time Resolved Fluorescence assay, which can be used to determine the inhibitory action of compounds of the invention toward. PDE1 or its isoforms, follows.
The HTRF PDE1 assay utilized the HTRF (Homogenous Time Resolved Fluorescence) technology, which is based on the competition between unlabeled cyclic nucleotide and cyclic nucleotide labeled with XL665 for the binding to cyclic nucleotide-specific antibody labeled with cryptate. The HTRF signal is thus inversely proportional to the concentration of cyclic nucleotide being measured. Since phosphodiesterases break down cyclic nucleotides the HTRF signal was used to determine PDE activity.
The Cisbio cGMP HTRF assay kit (Cat no: 62GM2PEC) was utilized. Cyclic GMP was diluted to 200 nM in HTRF assay buffer (1 mM CaCl2, 10 mM MgCl2, 10 mM Tris-HCl, 0.1% BSA, pH7.4). 10 μl of compound or DMSO was diluted in 200 nM cyclic GMP solution and added to wells of a 96 well white plate to give 100 nM cyclic GMP in 1% DMSO final concentration. PDE (1A3, 1B or 1C) was diluted to 2× working concentration in HTRF assay buffer with […] Calmodulin, and 10 μl was added to initiate the reaction. The plate was then incubated for 45 minutes at 37° C. d2-Labelled cyclic GMP and anti-cGMP cryptate were diluted in 50 mM phosphate buffer, 0.8M KF, 1% Triton X100, 0.2% BSA, pH7.0. Following incubation 10 μl d2-cGMP, then 10 μl anti cGMP cryptate were added to each well and the plate was incubated for 45 minutes at room temperature. The plate was then read on Perkin Elmer Victor at 2 different FRET readings ex/emm 340 nm/665 nm and 340 nm/615 nm.
Compounds having an IC50 of <1 μM, are denoted as +++. Compounds having an IC50 of 1-10 μM, are denoted as ++. Compounds having an IC50 of >10 μM, are denoted as +.
On the technique in general: In TR-FRET formats the signal depends on donor and acceptor labels being close together.
Turning to `COc1ccccc1CN1CCn2c(nc3c(cnn3C3CCCC3)c2=O)C1` [Compound I-78, 1-Cyclopentyl-8-(2-methoxybenzyl)-6,7,8,9-tetrahydropyrazino[1,2-a]pyrazolo[3,4-d]pyrimidin-4(1H)-one], the negative-log IC50 (pIC50) was greater than 6.00.

The compound `O=c1c2c(Nc3ccccc3)n[nH]c2nc2n1CCN(Cc1ccccc1)C2` [Compound I-50] gave a pIC50 of less than 5.00.

For `Cc1ncc(CN2CCn3c(nc4c(cnn4C4CCCC4)c3=O)C2)cn1` [Compound I-195, 1-Cyclopentyl-8-((2-methylpyrimidin-5-yl)methyl)-6,7,8,9-tetrahydropyrazino[1,2-a]pyrazolo[3,4-d]pyrimidin-4(1H)-one], the pIC50 is 5.00 to 6.00.

`CC(C)n1ncc2c(=O)n3c(nc21)CN(c1cccc(Cl)c1)CC3` [Compound I-88, 8-(3-Chlorophenyl)-1-isopropyl-6,7,8,9-tetrahydropyrazino[1,2-a]pyrazolo[3,4-d]pyrimidin-4(1H)-one] had a pIC50 greater than 6.00.

Take `O=c1c2cnn(-c3ccccc3)c2nc2n1CCNC2Cc1ccccc1` (racemic) [Compound I-9, (±)-9-Benzyl-1-phenyl-6,7,8,9-tetrahydropyrazino[1,2-a]pyrazolo[3,4-d]pyrimidin-4(1H)-one]: the pIC50 was less than 5.00.

Compound `COc1ccc(CN2CCn3c(nn4c(C(C)C)nnc4c3=O)C2)cc1` [Compound I-222, 3-Isopropyl-7-(4-methoxybenzyl)-8,9-dihydro-6H-pyrazino[2,1-c][1,2,4]triazolo[3,4-f][1,2,4]triazin-11(7H)-one] showed a negative-log IC50 (pIC50) of 5.00 to 6.00.

For the compound `CN1CCn2c(nc3c(cnn3C)c2=O)C1` [Compound I-17, 1,8-Dimethyl-6,7,8,9-tetrahydropyrazino[1,2-a]pyrazolo[3,4-d]pyrimidin-4(1H)-one], the pIC50 was less than 5.00.

Compound `O=c1c2cnn(C3CCCC3)c2nc2n1CCN(Cc1cccc(Cl)c1)C2` [Compound I-72, 8-(3-Chlorobenzyl)-1-cyclopentyl-6,7,8,9-tetrahydropyrazino[1,2-a]pyrazolo[3,4-d]pyrimidin-4(1H)-one] had a pIC50 greater than 6.00.

As to `CCCn1ncc2c(=O)n3c(nc21)CN(c1ccc(Cl)c(Cl)c1)CC3` [Compound I-168, 8-(3,4-Dichlorophenyl)-1-propyl-6,7,8,9-tetrahydropyrazino[1,2-a]pyrazolo[3,4-d]pyrimidin-4(1H)-one], the pIC50 was 5.00 to 6.00.

On to `CC1CN(Cc2ccc(Cl)cc2)Cc2nc3c(cnn3C3CCCC3)c(=O)n21` (racemic) [Compound I-121, (±)-8-(4-Chlorobenzyl)-1-cyclopentyl-6-methyl-6,7,8,9-tetrahydropyrazino[1,2-a]pyrazolo[3,4-d]pyrimidin-4(1H)-one], for which the pIC50 is 5.00 to 6.00.

Regarding `CC(C)c1nn(C)c2c(=O)n3c(nc12)C(Cc1ccccc1)N(Cc1ccccc1)CC3` (racemic) [Compound I-48, (±)-5,6-Dibenzyl-3-isopropyl-1-methyl-5,6,7,8-tetrahydropyrazino[1,2-a]pyrazolo[4,3-d]pyrimidin-10(1H)-one], the pIC50 was less than 5.00.

`CC(C)Cn1ncc2c(=O)n3c(nc21)CN(Cc1ccc(Cl)cc1)CC3` [Compound I-74, 8-(4-Chlorobenzyl)-1-isobutyl-6,7,8,9-tetrahydropyrazino[1,2-a]pyrazolo[3,4-d]pyrimidin-4(1H)-one] showed a negative-log IC50 (pIC50) greater than 6.00.

Turning to `CC(C)n1ncc2c(=O)n3c(nc21)CNC(c1ccccc1)C3` (racemic) [Compound I-106, (±)-1-isopropyl-7-phenyl-6,7,8,9-tetrahydropyrazino[1,2-a]pyrazolo[3,4-d]pyrimidin-4(1H)-one], the pIC50 was less than 5.00.

`COc1ccc(CN2CCn3c(nc4c(cnn4C(C)C)c3=O)C2)cc1F` [Compound I-140, 8-(3-Fluoro-4-methoxybenzyl)-1-isopropyl-6,7,8,9-tetrahydropyrazino[1,2-a]pyrazolo[3,4-d]pyrimidin-4(1H)-one] gave a pIC50 greater than 6.00.

As to `CC(C)Cc1nnc2c(=O)n3c(nn12)CN(CCc1ccccc1)CC3` [Compound I-227, 3-Isobutyl-7-phenethyl-8,9-dihydro-6H-pyrazino[2,1-c][1,2,4]triazolo[3,4-f][1,2,4]triazin-11(7H)-one], the pIC50 was 5.00 to 6.00.

The compound `CC(C)c1nn(C)c2c(=O)n3c(nc12)C(C)NCC3` (racemic) [Compound I-14, (±)-3-Isopropyl-1,5-dimethyl-5,6,7,8-tetrahydropyrazino[1,2-a]pyrazolo[4,3-d]pyrimidin-10(1H)-one] gave a pIC50 of less than 5.00.

In the case of `CC(C)n1ncc2c(=O)n3c(nc21)C(Cc1ccccc1)N(C)CC3` (racemic) [Compound I-25, (±)-9-Benzyl-1-isopropyl-8-methyl-6,7,8,9-tetrahydropyrazino[1,2-a]pyrazolo[3,4-d]pyrimidin-4(1H)-one], the negative logarithm of the IC50 (pIC50) is less than 5.00.

With `CC(C)c1nnc2c(=O)n3c(nn12)CN(CCc1ccccc1)CC3` [Compound I-225, 3-Isopropyl-7-phenethyl-8,9-dihydro-6H-pyrazino[2,1-c][1,2,4]triazolo[3,4-f][1,2,4]triazin-11(7H)-one], the pIC50 is 5.00 to 6.00.

Consider `O=c1c2onc(C3CCCC3)c2nc2n1CCN(Cc1ccc(Cl)cc1)C2` [Compound I-130, 6-(4-Chlorobenzyl)-3-cyclopentyl-7,8-dihydro-5H-isoxazolo[4,5-d]pyrazino[1,2-a]pyrimidin-10(6H)-one], for which the pIC50 was 5.00 to 6.00.

As to `O=c1c2cnc(C3CCOC3)n2nc2n1CCN(c1ccccc1)C2` (racemic) [Compound I-229, (±)-7-Phenyl-3-(tetrahydrofuran-3-yl)-8,9-dihydro-6H-imidazo[5,1-f]pyrazino[2,1-c][1,2,4]triazin-11(7H)-one], the negative-log IC50 (pIC50) is greater than 6.00.

With `CCOc1cccc(N2CCn3c(nn4c(C5CCCC5)ncc4c3=O)C2)c1` [Compound I-180, 3-Cyclopentyl-7-(3-ethoxyphenyl)-8,9-dihydro-6H-imidazo[5,1-f]pyrazino[2,1-c][1,2,4]triazin-11(7H)-one], the pIC50 is greater than 6.00.

In turn, `O=c1c2cnn(C3CCCC3)c2nc2n1CCN(c1ccccc1)C2` [Compound I-95, 1-Cyclopentyl-8-phenyl-6,7,8,9-tetrahydropyrazino[1,2-a]pyrazolo[3,4-d]pyrimidin-4(1H)-one] showed a pIC50 greater than 6.00.

For the compound `CC1c2nc3c(cnn3-c3ccccc3)c(=O)n2CCN1C` (racemic) [Compound I-22, (±)-8,9-Dimethyl-1-phenyl-6,7,8,9-tetrahydropyrazino[1,2-a]pyrazolo[3,4-d]pyrimidin-4(1H)-one], the pIC50 was less than 5.00.

Consider `CC(C)c1ncc2c(=O)n3c(nn12)CN(c1ccc(Cl)cc1)CC3` [Compound I-175, 7-(4-Chlorophenyl)-3-isopropyl-8,9-dihydro-6H-imidazo[5,1-f]pyrazino[2,1-c][1,2,4]triazin-11(7H)-one], for which the pIC50 was greater than 6.00.

On to `Cc1cnc(CN2CCn3c(nn4c(C(C)C)ncc4c3=O)C2)cn1` [Compound I-208, 3-Isopropyl-7-((5-methylpyrazin-2-yl)methyl)-8,9-dihydro-6H-imidazo[5,1-f]pyrazino[2,1-c][1,2,4]triazin-11(7H)-one], for which the pIC50 was 5.00 to 6.00.

Take `CCCn1ncc2c(=O)n3c(nc21)CN(Cc1ccc2c(c1)OCO2)CC3` [Compound I-255, 8-(Benzo[d][1,3]dioxol-5-ylmethyl)-1-propyl-6,7,8,9-tetrahydropyrazino[1,2-a]pyrazolo[3,4-d]pyrimidin-4(1H)-one]: the pIC50 is 5.00 to 6.00.

`COCCn1ncc2c(=O)n3c(nc21)CN(Cc1ccc2c(c1)OCO2)CC3` [Compound I-163, 8-(Benzo[d][1.3]dioxol-5-ylmethyl)-1-(2-methoxyethyl)-6,7,8,9-tetrahydropyrazino[1,2-a]pyrazolo[3,4-d]pyrimidin-4(1H)-one] gave a pIC50 of less than 5.00.

`CC1Cn2c(nc3c(cnn3C3CCCC3)c2=O)CN1Cc1ccc(Cl)cc1` (racemic) [Compound I-119, (±)-8-(4-Chlorobenzyl)-1-cyclopentyl-7-methyl-6,7,8,9-tetrahydropyrazino[1,2-a]pyrazolo[3,4-d]pyrimidin-4(1H)-one] had a negative logarithm of the IC50 (pIC50) greater than 6.00.

For `COc1ccc(CN2CCn3c(nc4c(cnn4C4CCOC4)c3=O)C2)cc1` (racemic) [Compound I-219, (±)-8-(4-methoxybenzyl)-1-(tetrahydrofuran-3-yl)-6,7,8,9-tetrahydropyrazino[1,2-a]pyrazolo[3,4-d]pyrimidin-4(1H)-one], the pIC50 is less than 5.00.

The compound `O=c1c2cnn(C3CCCC3)c2nc2n1CCN(c1ccccc1Cl)C2` [Compound I-87, 8-(2-Chlorophenyl)-1-cyclopentyl-6,7,8,9-tetrahydropyrazino[1,2-a]pyrazolo[3,4-d]pyrimidin-4(1H)-one] showed a pIC50 of 5.00 to 6.00.

In turn, `CC(C)n1ncc2c(=O)n3c(nc21)C(Cc1ccccc1)NCC3` (racemic) [Compound I-8, (±)-9-Benzyl-1-isopropyl-6,7,8,9-tetrahydropyrazino[1,2-a]pyrazolo[3,4-d]pyrimidin-4(1H)-one] had a pIC50 of 5.00 to 6.00.
